Peptide text beside a SMILES is read from it.
Assay: The concentration of compound required to prevent 50 percent of cells from adhering to MAdCAM-1

First: CC(=O)N[C@@H](CC(C)C)C(=O)NCC(CC(=O)O)S(=O)(=O)N[C@H](C(N)=O)C(C)C (stereo partly drawn) [4-((S)-2-Acetylamino-4-methyl-pentanoylamino)-3-((S)-1-carbamoyl-2-methyl-propylsulfamoyl)-butyric acid]
Second: CC(=O)N[C@@H](CC(C)C)C(=O)NCC(CC(=O)O)S(=O)(=O)N[C@H](C(N)=O)[C@@H](C)O (stereo partly drawn) [4-((S)-2-Acetylamino-4-methyl-pentanoylamino)-3-((S)-1-carbamoyl-2-(R)-hydroxy-propylsulfamoyl)-butyric acid]
The IC50 of the first is lower: 219 µM for the first, > 500 µM for the second. The first is the more potent here.

Compared with `CC(=O)N[C@@H](CC(C)C)C(=O)N[C@@H](CC(=O)O)C(=O)N[C@H](C(N)=O)C(C)C` [(S)-3-((S)-2-Acetylamino-4-methyl-pentanoylamino)-N-((S)-1-carbamoyl-2-methyl-propyl)-succinamic acid] (Ac-Leu-Asp-Val-NH2), `CC(=O)N[C@@H](CC(C)C)C(=O)N[C@@H](CC(=O)O)C(=O)N[C@H](C(N)=O)[C@@H](C)O` [(S)-3-((S)-2-Acetylamino-4-methyl-pentanoylamino)-N-((1S,2R)-1-carbamoyl-2-hydroxy-propyl)-succinamic acid] (Ac-Leu-Asp-Thr-NH2) is 2.2-fold higher in IC50: 126 µM for the first, 276 µM for the second. The first is the more potent here.

— BindingDB's records for doi:10.1016/S0960-894X(97)00090-5 (1997)
